The subject of assay [1] is self-splicing Pneumocystis carinii Group I intron RNA. The assay is described as follows: Filtration assay for self-splicing Group I intron (96-well, 32P-GTP incorporation, TCA precipitation). The settings on record: single concentration 20 μM; four repeats; FIG. 6. The assay is classed as biochemical. Here is the method:
A high-throughput screening assay for self-splicing Group I introns using 96-well format filter plates is disclosed. Nonradioactive, intron-containing precursor RNA is incubated with α-^32P-labeled GTP in the absence or presence of small molecules. During the first step of Group I intron splicing, ^32P-GTP is covalently ligated to the 5′ terminus of the intron. Subsequently, the intron-containing products of both the first (439-nt RNA) and the second (390-nt RNA) steps are radioactively labeled at the 5′-end with ^32P isotopes. Free ^32P-GTP and the longer ^32P-labeled (acid-precipitable) RNA products can be readily separated through trichloroacetic acid precipitation and subsequent filtration through nitrocellulose membrane. The efficiency of inhibition can be followed by measuring the amount of the radioactivity retained on the filter membrane. In the control experiment, the spliced products containing 5′-^32P GMP will retain on the membrane. If the first step (5′-cleavage) is inhibited by a small molecule, incorporation of ^32P-GTP to the precursor RNA will be inhibited and, therefore, a decreased amount of radioactivity will be found on the membrane.
In each well of a 96-well U-bottom microtiter plate, 32 μL of precursor RNA (in self-splicing buffer 50 mM Tris-HCl, pH 7.5, 10 mM (NH4)2SO4, 10 mM MgCl2, 5 mM spermidine, and 5% glycerol) was added with 2 μL of a small organic compound in dimethylsulfoxide (DMSO) and the mixture incubated at room temperature for 5 minutes. […] The filter was allowed to dry and the retained radioactivities were determined using scintillation counting (Wallac Microbeta Counter). […]
Column 1 represents the results of eight repeats of the self-splicing reactions in the absence of any inhibitors while Column 12 represents the data of eight repeats of solution containing ^32P-GTP only. […] The results of a total of 18 plates (a total of 1,440 samples) have been analyzed and the statistical distribution of the inhibitory activities is shown in FIG. 4. […]

The test system is the same in assay [2]. The assay is described as follows: Multiple-loading gel electrophoresis assay for self-splicing Group I intron. The assay is classed as biochemical. Particulars: single concentration 20 μM; four repeats; FIG. 6. Here is the method: As another example of a separation method useful in the present invention, a high-throughput gel electrophoresis assay with multiple loading capability is used in studies of self-splicing Group I introns. To be specific, the reaction sample, prepared similarly as described in the filtration assay, was loaded on a denaturing polyacrylamide gel (7 M urea, 6% polyacrylamide) and electrophoresed for 1 hour at room temperature. Due to their lengths, the ^32P-labeled products of the self-splicing introns can be readily distinguished from the ^32P-GTP on a polyacrylamide gel. On a single polyacrylamide gel, usually three or four repetitive loadings of different samples into the same wells at discrete times present no interference between samples. […] After a total of 3 hours of electrophoresis, the desired products are well-resolved in all samples regardless of the time of loading.
Each sample contains the same self-splicing reaction solution as described in the previous section (32 μL of precursor RNA in self-splicing buffer, 2 μL of DMSO or compound, and 6 μL solution of α-^32P-GTP). As described previously, the products of the self-splicing reactions are 5′-end labeled intron-containing 439-nt RNA (from the first step) and 390-nt RNA (from the second step). These large RNA fragments can be readily separated from the starting material, ^32P-GTP. After splicing reactions, a total of 20 samples were loaded on a polyacrylamide gel three times (first loading at time 0, then two more loadings at 1, and 2 hours after the first loading, respectively). […] In this gel electrophoresis assay, for the purpose of quantitation of reaction yields, appropriate ^32P-labeled RNA fragments can be introduced to each sample as an internal standard immediately prior to loading. The gels containing self-splicing products and internal standards separated according to their different mobilities can be dried and quantitated by a phosphor imager (Phosphoimager, Molecular Dynamics). […]

Starred links: 1 amine or outer side, 2 acyl side, 3 side chain; linkers in the order of their positions; H or OH if unused. Positions of bridges follow the written chain, without caps; N, C: chain ends. Non-standard residues stand in square brackets, D forms with d. Residues, ends and D or L forms follow the SMILES beside them. *: point of attachment. X1 = NC1=N[C@@H]([C@H](N[*:1])C(=O)[*:2])C[C@H](O)N1; ΔAla(Z-3-ureido) = NC(=O)N/C=C(\N)C(=O)O; β3hOrn = NCCC[C@H](N)CC(=O)*; Dap = NC[C@H](N)C(=O)O

On to `N=C(N)c1ccc(OCCCCCOc2ccc(C(=N)N)cc2)cc1` [pentamidine], for which the “Self-splicing inhibitory effect, filtration assay” value in assay [1] is listed as “either low or modest activity”. In addition, the “Self-splicing inhibitory effect, gel electrophoresis assay” value in assay [2] is given as “either low or modest activity”.
As for `[H]/N=C(/N)N[C@H]1[C@H](O)[C@@H](O)[C@H](O[C@@H]2O[C@@H](C)[C@](O)(C=O)[C@H]2O[C@@H]2O[C@@H](CO)[C@H](O)[C@@H](O)[C@@H]2NC)[C@@H](N/C(N)=N\[H])[C@@H]1O` [streptomycin], in assay [1], the “Self-splicing inhibitory effect, filtration assay” value was “either low or modest activity”. In addition, the “Self-splicing inhibitory effect, gel electrophoresis assay” value in assay [2] is reported as “either low or modest activity”.
On to `NCCC[C@H](N)CC(=O)N[C@H]1CNC(=O)[C@H]([C@H]2C[C@H](O)NC(N)=N2)NC(=O)/C(=C/NC(N)=O)NC(=O)[C@H](CO)NC(=O)[C@H](CO)NC1=O` [viomycin, Viomycin] (β3hOrn-[Dap]SS[ΔAla(Z-3-ureido)][X1]; lactam 1-C), for which the “Self-splicing inhibitory effect, filtration assay” value in assay [1] is listed as “either low or modest activity”. The “Self-splicing inhibitory effect, gel electrophoresis assay” value in assay [2] is “either low or modest activity”.

These data come from patent publication US20030040114A1, “SMALL MOLECULE MODULATION OF RIBOZYMES” (Warner-Lambert Company,, priority 1996, published 2003).
